Assay results taken from patent US5854388A, “Angiotensin IV peptides and receptor” (Washington State University Research Foundation, priority 1994, dated 1998).
“Also recorded” adds a separate entry of the source. Read-outs that look alike come from different tables or passages of the source. Positions of bridges follow the written chain, without caps; N, C: chain ends. Non-standard residues stand in square brackets, D forms with d. Residues, ends and D or L forms follow the SMILES beside them. No end group written: not given here. *: point of attachment. Ileψ(thiazoline)Cys = CC[C@H](C)[C@H](N)C1=N[C@H](C(=O)*)CS1; NMeI = CC[C@H](C)[C@H](NC)C(=O)O; dOrn = NCCC[C@@H](N)C(=O)O; Nle = CCCC[C@H](N)C(=O)O; Orn = NCCC[C@H](N)C(=O)O; GABA = NCCCC(=O)O

Key:
AT4 receptor [1] = target: T1, AT4 receptor (Bos taurus, UniProt F1N1Q8); test: 125I-AIV binding and competition, bovine adrenal cortical membranes
T1 sequence (F1N1Q8 1-1022): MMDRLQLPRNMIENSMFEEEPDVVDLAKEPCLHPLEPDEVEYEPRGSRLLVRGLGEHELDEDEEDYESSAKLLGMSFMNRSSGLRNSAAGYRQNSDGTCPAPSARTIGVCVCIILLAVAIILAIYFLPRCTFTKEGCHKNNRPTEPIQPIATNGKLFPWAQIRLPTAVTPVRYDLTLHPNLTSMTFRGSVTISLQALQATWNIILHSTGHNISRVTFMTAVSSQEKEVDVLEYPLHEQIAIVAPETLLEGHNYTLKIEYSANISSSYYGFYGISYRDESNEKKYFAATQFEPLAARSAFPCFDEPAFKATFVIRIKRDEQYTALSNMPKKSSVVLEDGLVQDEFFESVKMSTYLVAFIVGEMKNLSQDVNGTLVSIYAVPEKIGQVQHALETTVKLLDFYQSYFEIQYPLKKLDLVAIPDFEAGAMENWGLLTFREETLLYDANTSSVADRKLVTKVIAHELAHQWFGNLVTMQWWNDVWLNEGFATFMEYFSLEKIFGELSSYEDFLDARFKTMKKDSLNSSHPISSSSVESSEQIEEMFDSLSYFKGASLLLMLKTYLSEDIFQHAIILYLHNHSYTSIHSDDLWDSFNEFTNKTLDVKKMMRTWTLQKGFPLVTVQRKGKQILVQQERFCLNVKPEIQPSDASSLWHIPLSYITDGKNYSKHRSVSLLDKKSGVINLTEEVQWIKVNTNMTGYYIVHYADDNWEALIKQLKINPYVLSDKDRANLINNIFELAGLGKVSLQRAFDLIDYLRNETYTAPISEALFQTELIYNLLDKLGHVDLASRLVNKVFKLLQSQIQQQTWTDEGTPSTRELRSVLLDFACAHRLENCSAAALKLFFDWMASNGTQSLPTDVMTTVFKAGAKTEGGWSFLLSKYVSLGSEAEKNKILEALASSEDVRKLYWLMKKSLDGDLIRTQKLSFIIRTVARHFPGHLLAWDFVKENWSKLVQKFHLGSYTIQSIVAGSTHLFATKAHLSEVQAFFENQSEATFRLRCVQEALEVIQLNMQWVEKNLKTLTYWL

AT4 receptor [2] = target: T1, AT4 receptor; test: 125I-AIV binding and competition, solubilized bovine adrenal cortical receptor
AT4 receptor [3] = target: T1, AT4 receptor; test: 125I-AIV binding and competition, coronary venular endothelial cell (CVEC) membranes; parameters: species or system bovine
[4] = arterial and venous blood in man; cited from earlier work
[5] = target: T2, AT1 receptor (AII receptor) (Bos taurus, UniProt P25104); format: binding, bovine; settings: competition
T2 construct: from tissue; host or cells: bovine adrenal cortex membranes
T2 sequence (P25104 1-359): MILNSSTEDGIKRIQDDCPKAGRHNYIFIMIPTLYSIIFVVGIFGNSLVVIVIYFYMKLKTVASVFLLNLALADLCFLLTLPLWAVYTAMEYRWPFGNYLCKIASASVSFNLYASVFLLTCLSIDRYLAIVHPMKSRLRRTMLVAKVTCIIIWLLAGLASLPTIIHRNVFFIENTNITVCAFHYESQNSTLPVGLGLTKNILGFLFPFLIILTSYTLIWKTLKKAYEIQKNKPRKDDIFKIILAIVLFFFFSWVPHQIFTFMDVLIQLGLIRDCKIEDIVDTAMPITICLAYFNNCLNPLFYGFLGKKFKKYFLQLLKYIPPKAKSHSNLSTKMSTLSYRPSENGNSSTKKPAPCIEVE

rat kidney = test: Renal cortical blood flow (laser doppler) and arterial pressure after infusion into the renal artery; format: in vivo
[6] = Metabolism by rat kidney membranes / homogenates
[7] = read-out: 125I-AIV Binding (Ki)

CC[C@H](C)[C@H](NC(=O)[C@@H](N)Cc1ccc(O)cc1)C(=O)N[C@@H](Cc1cnc[nH]1)C(=O)N1CCC[C@H]1C(=O)N[C@@H](Cc1ccccc1)C(=O)O [AII(4-8), YIHPF] (H-YIHPF-OH)
Ki (AT4 receptor [1]; [7]): > 1000 nM
Ki (AT4 receptor [2]): > 1000 nM
Ki (AT4 receptor [3]; competition of 0.5 nM 125I-AIV): 253 ± 89.1 nM
half-lives [4]: 2.4 min

CC[C@H](C)[C@H](NC(=O)[C@@H](N)Cc1ccc(O)cc1)C(=O)N[C@@H](Cc1c[nH]cn1)C(=O)N1CCC[C@H]1C(=O)N[C@@H](Cc1ccccc1)C(=O)O [AII(4-8), YIHPF] (H-YIHPF-OH; N-terminus and C-terminus assumed)
decrease in binding affinity relative to AIV (AT4 receptor [1]): 1000 fold

CC[C@H](C)[C@H](N)C1=N[C@H](C(=O)N[C@@H](CC(C)C)C(=O)N[C@H](CCC(=O)O)C(=O)N[C@H](C(=O)N[C@H]2CCCCNC(=O)[C@H](CC(N)=O)NC(=O)[C@@H](CC(=O)O)NC(=O)[C@H](Cc3cnc[nH]3)NC(=O)[C@@H](Cc3ccccc3)NC(=O)[C@H]([C@@H](C)CC)NC(=O)[C@@H](CCCN)NC2=O)[C@@H](C)CC)CS1 [Bacitracin, ICLEIKOIFHDD, reference compound] ({Ileψ(thiazoline)Cys}-L[dE]IK[dOrn]I[dF]H[dD]N; lactam 4-C)
effect on binding of AIV ligand to the AT4 receptor (AT4 receptor [1]): inhibited

CC[C@H](C)[C@H](NC)C(=O)N[C@@H](Cc1ccc(O)cc1)C(=O)N[C@H](C(=O)N[C@@H](Cc1c[nH]cn1)C(=O)N1CCC[C@H]1C(=O)N[C@@H](Cc1ccccc1)C(=O)O)[C@@H](C)CC [CH3 -I1 YIHPF, N-methyl-Ile1 YIHPF] (H-[NMeI]YIHPF-OH)
decrease in affinity relative to I1YIHPF (AT4 receptor [1]; N-methylation of Ile1): 67 fold

CCCCc1nc(Cl)c(CO)n1Cc1ccc(-c2ccccc2-c2nn[nH]n2)cc1 [DuP 753, reference compound]
Ki (AT4 receptor [1]; [7]): > 100000 nM
Ki [5]: 31 nM
Ki (AT4 receptor [2]): > 100000 nM
Ki (AT4 receptor [3]; unit inferred): > 100000 nM

DYIHPF
Kd (AT4 receptor [1]): > 1000 nM
binding affinity for the AT4 receptor (in words) (AT4 receptor [1]): virtually no affinity

F1 YIHPF (FYIHPF)
decrease in binding affinity relative to AIV (AT4 receptor [1]): 4 fold

GABA-YIHPF ([GABA]YIHPF)
decrease in binding affinity relative to AIV (AT4 receptor [1]): 250 fold

IYIHPF [I1 YIHPF]
binding affinity for the AT4 receptor (in words) (AT4 receptor [1]): only a slight change (an increase) in binding affinity; also recorded: nearly the same binding affinity

KYIHPI [KYIHPI6]
binding affinity for the AT4 receptor (in words) (AT4 receptor [1]): lower affinity than the parent KYIHPF6
binding affinity for the AT4 receptor (in words) (AT4 receptor [1]; listed as Lys1 Ile6 -AIV): lower affinity than Lys1 -AIV

NleYIHPF ([Nle]YIHPF)
maximum increase in renal blood flow (rat kidney; 0.05 pmole): 19%
maximum increase in renal blood flow (rat kidney; 0.1 pmole): 19%
maximum increase in renal blood flow (rat kidney; 10 pmole): 21%
increase in renal blood flow (rat kidney; 100 pmole): 30%
effect on arterial blood pressure (in words) (rat kidney; rat, in vivo): no effect on mean arterial pressure
agonist / antagonist activity (in words) (rat kidney; renal blood flow response compared to AIV, listed as Nle1 -AIV): only a partial agonist
agonist / antagonist activity (in words) (rat kidney; renal blood flow response compared to AIV, listed as Nle1 YIHPF): partial agonist

OrnYIHPF ([Orn]YIHPF)
binding affinity for the AT4 receptor (in words) (AT4 receptor [1]): higher binding affinity than AIV

PYIHPF
decrease in binding affinity relative to AIV (AT4 receptor [1]): 8 fold

V1 Y2 I3 H4 P5 F6 H7 (VYIHPFH) [AI(3-9)]
binding affinity for the AT4 receptor (in words) (AT4 receptor [1]): did not alter binding significantly
binding affinity for the AT4 receptor (in words) (AT4 receptor [1]; listed as V1 Y2 I3 H4 P5 F6 H7): does not alter binding

V1 Y2 I3 H4 P5 F6 H7 L8 (VYIHPFHL) [AI(3-10)]
decrease in binding affinity relative to AIV (AT4 receptor [1]): 2 fold

VF2 IHPF (VFIHPF)
binding affinity for the AT4 receptor (in words) (AT4 receptor [1]): very low affinity

VPIHYF [Phe2 Tyr6 AIV, positions of the Phe and Tyr residues in AIV reversed]
binding affinity for the AT4 receptor (in words) (AT4 receptor [1]): very low binding affinity

VYIH
decrease in binding relative to VYIHP (AT4 receptor [1]): 21 fold
Ki (AT4 receptor [1]; read-out: Ki): > 500 nM

VYIHP [des Phe6 -AIV]
binding affinity for the AT4 receptor (in words) (AT4 receptor [1]): did not alter binding significantly
binding affinity for the AT4 receptor (in words) (AT4 receptor [1]; listed as V1 Y2 I3 H4 P5): does not alter binding significantly
binding to solubilized AT4 receptor (in words) (AT4 receptor [2]; listed as VYIHP): retained AT4 receptor binding activity
binding to solubilized AT4 receptor (in words) (AT4 receptor [2]; listed as desPhe6 -AIV): still retained AIV binding activity
increase in Ki (decrease in affinity) compared with AIV (AT4 receptor [3]): 7 fold
Ki (AT4 receptor [3]; competition of 0.5 nM 125I-AIV, read-out: Ki): 7.3 ± 1.2 nM

VYIHPI [VYIHPI6]
binding affinity for the AT4 receptor (in words) (AT4 receptor [1]): higher affinity than the parent VYIHPF; also recorded: higher binding affinity for the AT4 receptor than AIV

V[D-Y2 ]IHPF [D-Y2 AIV]
binding affinity for the AT4 receptor (in words) (AT4 receptor [1]): very low affinity; also recorded: low binding affinity
Ki (AT4 receptor [2]; read-out: Ki): 416 nM

^+ H3 N-Val(CH2 NH)Tyr-Val(CH2 NH)-His-Pro-Phe-COO^- (H-VYVHPF-OH; also: reduced CH2-NH bonds: Val1-Tyr2, Val3-His4) [Val1 Val3 AIV]
binding affinity for the AT4 receptor (in words) (AT4 receptor [1]): affinity equal to or better than VYIHPF; also recorded: equal or better affinity than AIV
Ki (AT4 receptor [2]; read-out: Ki): 1.29 nM
agonist / antagonist activity (in words) (rat kidney; rat, in vivo): potent antagonist of AT4 receptor activity
effect of preinfusion on blood flow response to another ligand (rat kidney; rat, in vivo): completely blocks Lys^1 AIV-induced increases in blood flow
effect on arterial blood pressure (in words) (rat kidney; rat, in vivo): did not alter blood pressure or renal blood flow
effect on renal blood flow (in words) (rat kidney; rat, in vivo): did not alter blood pressure or renal blood flow
stability on exposure to rat kidney (in words) [6]: totally resistant to enzymatic degradation
stability on exposure to rat kidney (in words) ([6]; listed as divalinal AIV): enhanced metabolic stability
remaining intact ([6]; rat kidney membranes, 4 hr, room temperature): 100%
